In patent publication US10519177B2, “Heterocyclic compounds and uses thereof” (Plexxikon Inc., priority 2013, dated 2019):

Molecular target: BRD4-BD1 (44-164) (Homo sapiens (Human), UniProt O60885)
Experiment: Alphascreen binding assay BRD4-BD1
Conditions: BRD4(1) H4; read-out: Biochemical activity (IC50 μM) BRD4(1) H4
Summary of the method: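 His-tagged E. coli-expressed BRD4 BD1 (44-164) or BD1-BD2 (1-477) incubated 1 h at room temperature with biotinylated tetra-acetylated histone H4 1-21 peptide and compound in HEPES pH 7.5, NaCl, BSA, Triton X-100, DTT buffer. Ni-chelate/streptavidin AlphaScreen beads (7.5 µg/ml) added, read after 30 min; pIC50 from four-parameter fit.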

Structure (SMILES)	IC50 [µM]
Cc1noc(C)c1-c1cnc2c(-c3cnn(C4CC4)c3)cn(C(C)c3ccccc3)c2c1 (stereo not shown) [P-0216, 4-[3-(1-cyclopropylpyrazol-4-yl)-1-(1-phenylethyl)pyrrolo[3,2-b]pyridin-6-yl]-3,5-dimethyl-isoxazole]	< 1
CCCS(=O)(=O)n1cc(-c2cnn(C3CCOC3)c2)c2ncc(-c3c(C)noc3C)cc21 (stereo not shown) [P-0154, 3,5-dimethyl-4-[1-propylsulfonyl-3-(1-tetrahydrofuran-3-ylpyrazol-4-yl)pyrrolo[3,2-b]pyridin-6-yl]isoxazole]	< 1
C=CCn1cc(-c2cn(S(=O)(=O)C3CCCC3)c3cc(-c4c(C)noc4C)cnc23)cn1 [P-0128, 4-[3-(1-allylpyrazol-4-yl)-1-cyclopentyl-sulfonyl-pyrrolo[3,2-b]pyridin-6-yl]-3,5-dimethyl-isoxazole]	< 1
Cc1noc(C)c1-c1cnc2c(-c3cnn(C(F)F)c3)cn(S(=O)(=O)c3ccccc3)c2c1 [P-0131, 4-[1-(benzenesulfonyl)-3-[1-(difluoromethyl)pyrazol-4-yl]pyrrolo[3,2-b]pyridin-6-yl]-3,5-dimethyl-isoxazole]	< 1
Cc1noc(C)c1-c1cnc2ccn(S(=O)(=O)c3ccccc3F)c2c1 [P-0060, 4-[1-(2-fluorophenyl)sulfonylpyrrolo[3,2-b]pyridin-6-yl]-3,5-dimethyl-isoxazole]	< 1
Cc1noc(C)c1-c1cnc2[nH]cc(CC3CCS(=O)(=O)CC3)c2c1 [P-0098, 4-[[5-(3,5-dimethylisoxazol-4-yl)-1H-pyrrolo[2,3-b]pyridin-3-yl]methyl]thiane 1,1-dioxide]	< 1
C=CCn1cc(-c2cn(S(=O)(=O)C(C)CC)c3cc(-c4c(C)noc4C)cnc23)cn1 (stereo not shown) [P-0138, 4-[3-(1-allylpyrazol-4-yl)-1-sec-butyl-sulfonyl-pyrrolo[3,2-b]pyridin-6-yl]-3,5-dimethyl-isoxazole]	< 1
Cc1noc(C)c1-c1cnc2c(c1)c(Sc1ccccc1)cn2-c1cnn(C)c1 [P-0184, 3,5-dimethyl-4-[1-(1-methylpyrazol-4-yl)-3-phenylsulfanyl-pyrrolo[2,3-b]pyridin-5-yl]isoxazole]	< 1
C=CCn1cc(-c2cn(S(=O)(=O)CCC(F)(F)F)c3cc(-c4c(C)noc4C)cnc23)cn1 [P-0129, 4-[3-(1-allylpyrazol-4-yl)-1-(3,3,3-trifluoro-propylsulfonyl)pyrrolo[3,2-b]pyridin-6-yl]-3,5-dimethyl-isoxazole]	< 1
Cc1noc(C)c1-c1cnc2c(-c3cnn(C)c3)cn(S(=O)(=O)C3CCCC3)c2c1 [P-0112, 4-[1-cyclopentyl-sulfonyl-3-(1-methyl-pyrazol-4-yl)pyrrolo[3,2-b]pyridin-6-yl]-3,5-dimethyl-isoxazole]	< 1
Cc1noc(C)c1-c1cnc2c(-c3cnn(C4CCCCO4)c3)cn(S(=O)(=O)c3ccccc3)c2c1 (stereo not shown) [P-0168, 4-[1-(benzenesulfonyl)-3-(1-tetrahydropyran-2-ylpyrazol-4-yl)pyrrolo[3,2-b]pyridin-6-yl]-3,5-dimethyl-isoxazole]	< 1
C=CCn1cc(-c2cn(S(=O)(=O)CC3CC3)c3cc(-c4c(C)noc4C)cnc23)cn1 [P-0140, 4-[3-(1-allylpyrazol-4-yl)-1-(cyclopropyl-methylsulfonyl)pyrrolo[3,2-b]pyridin-6-yl]-3,5-dimethyl-isoxazole]	< 1
Cc1noc(C)c1-c1cnc2c(-c3cnn(CC(F)(F)F)c3)cn(S(=O)(=O)C3CCCC3)c2c1 [P-0149, 4-[1-cyclopentyl-sulfonyl-3-[1-(2,2,2-trifluoroethyl)pyrazol-4-yl]pyrrolo[3,2-b]pyridin-6-yl]-3,5-dimethyl-isoxazole]	< 1
Cc1noc(C)c1-c1cnc2c(-c3cnn(C(F)F)c3)cn(C(C)c3ccccc3)c2c1 (stereo not shown) [P-0177, 4-[3-[1-(difluoromethyl)pyrazol-4-yl]-1-(1-phenylethyl)pyrrolo[3,2-b]pyridin-6-yl]-3,5-dimethyl-isoxazole]	< 1
C=CCn1cc(-c2cn(C(C)c3ccccc3)c3cc(-c4c(C)noc4C)cnc23)cn1 (stereo not shown) [P-0201, 4-[3-(1-allylpyrazol-4-yl)-1-(1-phenylethyl)pyrrolo[3,2-b]pyridin-6-yl]-3,5-dimethyl-isoxazole]	< 1
Cc1noc(C)c1-c1cnc2c(C#CCF)cn(S(=O)(=O)C3CCCC3)c2c1 [P-0158, 4-[1-cyclopentylsulfonyl-3-(3-fluoroprop-1-ynyl)pyrrolo[3,2-b]pyridin-6-yl]-3,5-dimethyl-isoxazole]	< 1
Cc1noc(C)c1-c1cnc2c(c1)c(C(O)C1CCSCC1)cn2S(=O)(=O)c1ccccc1 (stereo not shown) [P-0090, [1-(benzenesulfonyl)-5-(3,5-dimethylisoxazol-4-yl)pyrrolo[2,3-b]pyridin-3-yl]-tetrahydrothiopyran-4-yl-methanol]	< 1
Cc1noc(C)c1-c1cnc2[nH]cc(Sc3ccccc3)c2c1 [P-0144, 3,5-dimethyl-4-(3-phenylsulfanyl-1H-pyrrolo[2,3-b]pyridin-5-yl)isoxazole]	< 1
CCNC(=O)N1CCC(Cc2cn(C)c3ncc(-c4c(C)noc4C)cc23)CC1 [P-0117, 4-[[5-(3,5-dimethylisoxazol-4-yl)-1-methyl-pyrrolo[2,3-b]pyridin-3-yl]methyl]-N-ethyl-piperidine-1-carboxamide]	< 1

Structure (SMILES)	IC50 [µM]
Cc1noc(C)c1-c1cnc2[nH]cc(P(C)(=O)c3ccccc3)c2c1 (stereo not shown) [P-0165, 3,5-dimethyl-4-[3-[methyl(phenyl)phosphoryl]-1H-pyrrolo[2,3-b]pyridin-5-yl]isoxazole]	< 1
COCCn1cc(-c2cn(S(=O)(=O)C3CCCC3)c3cc(-c4c(C)noc4C)cnc23)cn1 [P-0151, 4-[1-cyclopentyl-sulfonyl-3-[1-(2-methoxyethyl)pyrazol-4-yl]pyrrolo[3,2-b]pyridin-6-yl]-3,5-dimethyl-isoxazole]	< 1
COc1ncc(C(O)c2c[nH]c3ncc(-c4c(C)noc4C)cc23)cc1F (stereo not shown) [P-0025, [5-(3,5-dimethylisoxazol-4-yl)-1H-pyrrolo[2,3-b]pyridin-3-yl]-(5-fluoro-6-methoxy-3-pyridyl)methanol]	< 1
COc1ncc(-c2cn(S(=O)(=O)c3ccccc3)c3cc(-c4c(C)noc4C)cnc23)cn1 [P-0104, 4-[1-(benzenesulfonyl)-3-(2-methoxypyrimidin-5-yl)pyrrolo[3,2-b]pyridin-6-yl]-3,5-dimethyl-isoxazole]	< 1
C=CCn1cc(-c2cn(S(=O)(=O)c3ccccc3F)c3cc(-c4c(C)noc4C)cnc23)cn1 [P-0127, 4-[3-(1-allylpyrazol-4-yl)-1-(2-fluorophenyl)sulfonyl-pyrrolo[3,2-b]pyridin-6-yl]-3,5-dimethyl-isoxazole]	< 1
Cc1noc(C)c1-c1cnc2c(-c3cnn(C)c3)cn(S(=O)(=O)c3ccccc3F)c2c1 [P-0121, 4-[1-(2-fluorophenyl)sulfonyl-3-(1-methyl-pyrazol-4-yl)pyrrolo[3,2-b]pyridin-6-yl]-3,5-dimethyl-isoxazole]	< 1
COC(c1ccc(C(F)(F)F)nc1)c1c[nH]c2ncc(-c3c(C)noc3C)cc12 (stereo not shown) [P-0013, 4-[3-[methoxy-[6-(trifluoromethyl)-3-pyridyl]methyl]-1H-pyrrolo[2,3-b]pyridin-5-yl]-3,5-dimethyl-isoxazole]	< 1
Cc1noc(C)c1-c1cnc2ccn(S(=O)(=O)N3CCCCC3)c2c1 [P-0067, 3,5-dimethyl-4-[1-(1-piperidylsulfonyl)pyrrolo[3,2-b]pyridin-6-yl]isoxazole]	< 1
Cc1noc(C)c1-c1cnc2[nH]cc(C3(O)CCC(F)(F)CC3)c2c1 [P-0024, 1-[5-(3,5-dimethylisoxazol-4-yl)-1H-pyrrolo[2,3-b]pyridin-3-yl]-4,4-difluoro-cyclohexanol]	< 1
Cc1noc(C)c1-c1cnc2ccn(C(CC#N)C3CCCC3)c2c1 (stereo not shown) [P-0196, 3-cyclopentyl-3-[6-(3,5-dimethylisoxazol-4-yl)pyrrolo[3,2-b]pyridin-1-yl]propanenitrile]	< 1
Cc1noc(C)c1-c1cnc2[nH]c(C)c(C(O)c3cccnc3)c2c1 (stereo not shown) [P-0009, [5-(3,5-dimethylisoxazol-4-yl)-2-methyl-1H-pyrrolo[2,3-b]pyridin-3-yl]-(3-pyridyl)methanol]	< 1
C=CCn1cc(-c2cn(S(=O)(=O)c3ccccc3)c3cc(-c4c(C)noc4C)cnc23)cn1 [P-0126, 4-[3-(1-allylpyrazol-4-yl)-1-(benzenesulfonyl)pyrrolo[3,2-b]pyridin-6-yl]-3,5-dimethyl-isoxazole]	< 1
COC(c1c[nH]c2ncc(-c3c(C)noc3C)cc12)C1CCS(=O)(=O)CC1 (stereo not shown) [P-0089, 4-[[5-(3,5-dimethylisoxazol-4-yl)-1H-pyrrolo[2,3-b]pyridin-3-yl]-methoxy-methyl]thiane 1,1-dioxide]	< 1
Cc1noc(C)c1-c1cnc2[nH]cc(C(O)c3ccccc3Cl)c2c1 (stereo not shown) [P-0019, (2-chlorophenyl)-[5-(3,5-dimethylisoxazol-4-yl)-1H-pyrrolo[2,3-b]pyridin-3-yl]methanol]	< 1
Cc1noc(C)c1-c1cnc2c(-c3cnn(C4CCOC4)c3)cn(C(C)c3ccccc3)c2c1 (stereo not shown) [P-0204, 3,5-dimethyl-4-[1-(1-phenyl-ethyl)-3-(1-tetrahydrofuran-3-ylpyrazol-4-yl)pyrrolo[3,2-b]pyridin-6-yl]isoxazole]	< 1
Cc1noc(C)c1-c1cnc2c(-c3cn[nH]c3)cn(S(=O)(=O)c3ccccc3)c2c1 [P-0163, 4-[1-(benzenesulfonyl)-3-(1H-pyrazol-4-yl)pyrrolo[3,2-b]pyridin-6-yl]-3,5-dimethyl-isoxazole]	< 1
Cc1noc(C)c1-c1cnc2c(I)cn(S(=O)(=O)c3ccccc3)c2c1 [P-0076, 4-[1-(benzenesulfonyl)-3-iodo-pyrrolo[3,2-b]pyridin-6-yl]-3,5-dimethyl-isoxazole]	< 1
COCCn1cc(-c2cn(S(=O)(=O)c3ccccc3)c3cc(-c4c(C)noc4C)cnc23)cn1 [P-0147, 4-[1-(benzenesulfonyl)-3-[1-(2-methoxyethyl)pyrazol-4-yl]pyrrolo[3,2-b]pyridin-6-yl]-3,5-dimethyl-isoxazole]	< 1
